Laboratory results published in patent US20110008258A1, “METHODS RELATING TO BREATHING DISORDERS” (SAMSARA MEDICIN AB, priority 2007, published 2011).

How the values were obtained:
EP3R^+/+ mice = experiment: Flow plethysmography after icv PGE2, EP3R+/+ mice; assay type: in vivo
Protocol: (§1) A Plexiglas chamber (35 ml) was connected to a highly sensitive direct airflow sensor (0-200 ml/min; TRN3100, Kent Scientific Corporation, Litchfield, Conn., USA). The flow signal was amplified by a four-channel amplifier (P/N 770 S/N 5; SENSElab, Somedic Sales, Hörby, Sweden), converted to digital signal, and recorded at 100 Hz by an online computer using DasyLab software (Datalog GmbH & Co. KG, Mönchengladbach, Germany). Respiratory frequency (fR, breaths/min), tidal volume (VT, μl/breath), and minute ventilation (VE, μl/min) were calculated. Chamber temperature was maintained at 30.1±0.1° C. in accordance with the documented thermoneutral range for neonatal mice by immersing the chamber in a thermostat-controlled water bath (49). As described previously, the chamber was calibrated by repeatedly injecting standardized volumes of air (5-200 μl) with preset precision syringes (Hamilton Bonaduz AG, Switzerland) (6). 95% of gas exchange occurred within 35 s of administration, which was verified by CO2 content analyses (Metek CD-3A and S-3A, PA, USA).
(§2) Respiration was examined using flow plethysmography in 9 d-old C57BL/6 mice (n=38) with variable expression of EP3R. After the administration of sevoflurane anesthesia for approximately 60 s, PGE2 (4 nmol in 2-4 μl aCSF) or vehicle was slowly injected into the lateral ventricle using a thin pulled glass pipette attached to polyeethylene tubing. The mouse was then placed immediately into the plethysmograph chamber. After a 10 min recovery period in normoxia, the mouse was exposed to hyperoxic and anoxic challenge as described above. Animal skin temperature was recorded at baseline and at each subsequent minute using a thermistor temperature probe.
(§3) Periods of calm respiration without movement artefact were selected for analysis. Mean fR, VT, and VE values during normoxia and hyperoxia as well as the anoxic response (i.e., hyperpnea, primary apnea, gasping, secondary apnea, and autoresuscitation) were analyzed as described previously (6, the disclosure of which is expressly incorporated herein by reference). Survival was recorded for all animals. Apnea was defined as cessation of breathing for three respiratory cycles. Regularity of breathing was quantified using the coefficient of variation (C.V.) (i.e., SD divided by mean of breath-by-breath interval during 60 periods).

EP3R^−/− mice = experiment: Flow plethysmography after icv PGE2, EP3R−/− mice; assay type: in vivo
Protocol: as §1, §2, §3

[1] = system: brainstem spinal-cord preparations from EP3R^+/+ pups; experiment: En bloc brainstem-spinal cord preparation, respiratory activity, EP3R+/+; design: species or system mice; conditions: PGE2 20 μg/l, 2-3 d old EP3R+/+ pups, n=5, reversible
Protocol: (§4) Brainstem-spinal cord preparations were rapidly isolated from 2 d-old C57BL/6 mice with EP3R^+/+ and EP3R^−/− genotypes as described previously (n=11) (50, 51, both of which are expressly incorporated herein by reference). Respiratory-related activity corresponding to the inspiratory rhythm was monitored at the C4 ventral root through a glass suction electrode, recorded (5 kHz), and analyzed offline. Control recordings were performed for at least 20 min before perfusion with aCSF containing PGE2 followed by an aCSF washout period.
(§5) The brainstem was rostrally decerebrated between the cranial nerve VI roots and the lower border of the trapezoid body so that the pons was removed. The preparation was continuously perfused in a 1.5 ml chamber with artificial cerebrospinal fluid (aCSF): 130 mM NaCl, 3.3 mM KCl, 0.8 mM KH2PO4, 0.8 mM CaCl2, 1.0 mM MgCl2, 26 mM NaHCO3, and 30 mM D-glucose at 28° C. (flow rate, 3-4 ml/min). The solution was continuously equilibrated with 95% O2 and 5% CO2 to pH 7.4 (50, 51).

[2] = system: brainstem spinal-cord preparations from EP3R^−/− mice; experiment: En bloc brainstem-spinal cord preparation, respiratory activity, EP3R−/−; conditions: PGE2 20 μg/l, n=6
Protocol: as §4, §5

[3] = Protocol: PGE2 and metabolites thereof may persist and may be measured even after more than 72 hours. Half time for PGE2 degradation various considerably pending on the cellular environment. Half-life of PGE2 can vary from a few minutes to several hours. When evaluating PGE2 produced in the body and secreted in urine or other body fluids it is important to also measure its metabolites.
[4] = 9 d-old EP3R+/+ mice, PGE2 icv, hyperoxia (100% O2)
[5] = 9 d-old EP3R+/+ mice, PGE2 icv, normoxia
[6] = 9 d-old EP3R−/− mice, PGE2 icv, hyperoxia (100% O2)
[7] = 9 d-old EP3R−/− mice, PGE2 icv, normoxia

CCCCC[C@H](O)/C=C/[C@H]1[C@H](O)CC(=O)[C@@H]1C/C=C\CCCC(=O)O [PGE2, Prostaglandin E2]
fR, normoxia (EP3R^+/+ mice; 9 d-old EP3R+/+ mice, PGE2 4 nmol icv, normoxia): 247 ± 13 breaths/min | Hyperpnea fR (EP3R^+/+ mice; 9 d-old EP3R+/+ mice, PGE2 icv, anoxia (100% N2)): 267 ± 11 breaths/min | VE, hyperoxia (EP3R^+/+ mice; [4]): 745 ± 102 µL/min/g | VT, hyperoxia (EP3R^+/+ mice; [4]): 4.4 ± 1.1 μl/br/g | fR, hyperoxia (EP3R^+/+ mice; [4]): 190 ± 16 breaths/min | VE, normoxia (EP3R^+/+ mice; [5]): 901 ± 154 µL/min/g | VT, normoxia (EP3R^+/+ mice; [5]): 3.7 ± 0.4 μl/br/g | gasping response and anoxic survival (EP3R^+/+ mice; EP3R+/+ mice, PGE2 icv, compared to vehicle): did not alter the gasping response or anoxic survival | apnea frequency and breathing pattern (EP3R^+/+ mice; EP3R+/+ mice, PGE2 icv, normoxia and hyperoxia, vs vehicle): induced a significantly greater apnea frequency and irregular breathing pattern | fR, normoxia (EP3R^−/− mice; 9 d-old EP3R−/− mice, PGE2 4 nmol icv, normoxia): 256 ± 10 breaths/min | Hyperpnea fR (EP3R^−/− mice; 9 d-old EP3R−/− mice, PGE2 icv, anoxia (100% N2)): 290 ± 9 breaths/min | VE, hyperoxia (EP3R^−/− mice; [6]): 1509 ± 299 µL/min/g | VT, hyperoxia (EP3R^−/− mice; [6]): 6.7 ± 1.3 μl/br/g | fR, hyperoxia (EP3R^−/− mice; [6]): 229 ± 9 breaths/min | VE, normoxia (EP3R^−/− mice; [7]): 1350 ± 129 µL/min/g | VT, normoxia (EP3R^−/− mice; [7]): 5.2 ± 0.5 μl/br/g | gasping response and anoxic survival (EP3R^−/− mice; EP3R−/− mice, PGE2 icv, compared to vehicle): did not alter the gasping response or anoxic survival | induction of apneas (EP3R^−/− mice; EP3R−/− mice, PGE2 icv, normoxia and hyperoxia, vs vehicle): not observed | respiratory rhythm generation, relative to control frequency (fR) [1]: 64±5 % of control frequency | effect on respiratory activity [2]: did not affect respiratory activity | half-life of PGE2 [3]: 12 to 18 h
